Experimental data: patent US5240961A, “Method of treating reduced insulin-like growth factor and bone loss associated with aging” (priority 1992, dated 1993)
“And” between values parts separate entries of the source, which are not always exact repeats. Equal entries are not always repeated. “Also recorded” adds a separate entry of the source. Where two headings read alike, the source gives them in different places.

How the values were obtained:
[1] = Serum carnitine levels in aged mice fed L-carnitine; assay type: in vivo, mouse (BALB/c); conditions: mouse, serum, po, 50 mg/kg/day, 50 mg/kg/day oral, six weeks
Description: (§1) The present invention is further explained by the following examples which should not be construed by way of limiting the scope of the present invention. In the following examples, serum carnitine levels were determined by the method of R. Parvin et al., Anal. Biochem., vol. 79 (1979) pp. 190-201. Serum IGF-1 concentrations were measured by immunoradiometric assay, for example, by IRMA Kit available from Diagnostic Systems Laboratories, Inc., Webster, Texas. Serum osteocalcin levels were measured according to the method of Grunaberg et al., Meth. Enzymology, vol 107 (1984) 516, and which is embodied in an osteocalcin kit available from Biomedical Technologies, Inc., Stoughton, Mass. All mice used in the animal studies were BALB/c strain which is commercially available.
(§2) Forty aged mice were separated into two groups. After an initial acclimatizing period of one week, one group was fed a diet with L-carnitine supplementation for six weeks and the other was fed normal, unsupplemented feed (control). Each mouse in the test group was fed a daily oral dose of L-carnitine of about 50 mg/kg of body weight. The average daily food for each mouse was determined by weighing the food initially placed in the food bin and weighing the remaining food. The feed was supplemented with L-carnitine so that each mouse in the test group consumed the test dose (50 mg/kg) of L-carnitine each day. Mouse blood was sampled prior to beginning of the trial (pretreatment), at the end of three weeks, and at six weeks (posttreatment), and was evaluated for serum osteocalcin and carnitine levels.

serum carnitine = test: as above; assay type: in vivo, mouse (BALB/c); conditions: 50 mg/kg/day
Description: as §1, §2

[2] = Serum carnitine at 12 weeks in adult mice fed L-carnitine, acetyl carnitine or γ-butyrobetaine; parameters: species or system mouse (BALB/c male); conditions: mouse, in vivo, po, Serum carnitine
Description: as §1
Tests were performed to compare the effects on serum osteocalcin of diet supplementation with L-carnitine, its precursor, γ-butyrobetaine (available from Aldrich Chemical Co.) and one of its metabolites, acetylcarnitine (available from Life Science Resources, Milwaukee, Wis. 53223). Twenty adult mice, i.e., three months of age, (BALB/c male mice) were divided into seven groups. Each of the groups was fed diets as indicated hereinbelow for twelve weeks. One group (n=3) was fed a diet with L-carnitine supplementation at a dose of 50 mg/kg of body weight each day, while the second group (n=3) was fed L-carnitine at a daily dose of about 100 mg/kg. The third group (n=2) was fed a diet with acetylcarnitine supplementation at a daily dose of 50 mg/kg, while the fourth group (n=3) was fed a daily dose of 100 mg/kg of this compound. The fifth group (n=2) was fed a daily dose of 50 mg/kg of γ-butyrobetaine supplementation,while the sixth group was fed a daily dose of 100 mg/kg of γ-butyrobetaine. The seventh group (n=4) was fed normal, unsupplemented feed (control). Mouse blood was sampled prior to beginning of the trial (pretreatment), at six weeks, and at the end of the trial (twelve weeks). The samples were evaluated for serum osteocalcin levels at six and twelve weeks. Total carnitine was determined at twelve weeks.

serum IGF-1 [3] = test: IGF-1 response to L-carnitine supplementation in healthy adults over 60 (Example 4); assay type: in vivo, human; conditions: three months
Description: as §1
(§3) Seven adults from Example 3 agreed to receive a daily dosage of L-carnitine of 2 g/day, self-administered orally, for three months. Doses were administered four times daily, and each dose consisted of two 250 mg tablets. Of the seven individuals, two individuals dropped out of the study due to unrelated illness; thus, five remained in the study to completion. The following were evaluated by pretreatment and posttreatment comparisons: serum carnitine and serum IGF-1 by known methods, and bone mineral contents by bone scan of thoracic region, i.e., thoracic vertebrae, on a NORLAND scanner.

[4] = system: bone mineral content of thoracic vertebrae; test: Bone mineral content of thoracic vertebrae by bone scan (Example 4); assay type: in vivo, human
Description: as §3

serum IGF-1 [5] = test: Serum IGF-1 after oral L-carnitine, double-blind study in patients over 60 (Example 5); assay type: in vivo, human; conditions: for IGF-1: individual subjects 010-019, 2 g/day oral; for average serum IGF-1: treatment group average
Description: as §1
Nineteen patients (over age 60) were enrolled in a preliminary double-blindstudy to establish the effect of oral L-carnitine treatment on serum IGF-1 and osteocalcin levels. Baseline, i.e., pretreatment, levels of serum IGF-1, osteocalcin and carnitine were measured by known methods. The patients were divided into two groups, control (n=9; subjects 001-009 in Table 5 below) and treatment (n=10; subjects 010-019 in Table 5 below). The treatment group received a daily dosage of 2 g of L-carnitine orally, self-administered, in four separate doses of two 250 mg tablets taken four times per day, for twelve weeks. The control group were given placebo, e.g., simple sugar. Serum samples were drawn every four weeks, and serum carnitine, IGF-1 and osteocalcin were determined.

SMILES: C[N+](C)(C)C[C@H](O)CC(=O)[O-] [L-carnitine]
- concentration at 1008 h ([1]; read-out: Serum Carnitine, Free): 57 ± 9.7 µM
- concentration at 1008 h ([1]; read-out: Serum Carnitine, Total): 80.2 ± 9.5 µM
- carnitine levels vs control group (serum carnitine): higher carnitine levels than the control group
- concentration at 2016 h ([2]; 50 mg/kg/day, Free): 52.1 µM
- concentration at 2016 h ([2]; 50 mg/kg/day, Total): 66 µM
- concentration at 2016 h ([2]; 100 mg/kg/day, Free): 41.6 µM
- concentration at 2016 h ([2]; 100 mg/kg/day, Total): 59.5 µM
- significance of IGF-1 increase (p, paired comparisons) (serum IGF-1 [3]; 2 g/day oral): ≤ 0.05
- IGF-1, posttreatment (serum IGF-1 [3]; individual subjects 001-005, 2 g/day oral): 396 ng/mL and 280 ng/mL and 148 ng/mL and 270 ng/mL and 264 ng/mL
- mean IGF-1 after treatment (serum IGF-1 [3]; mean, 2 g/day oral, pretreatment mean 170): 272 ng/mL
- bone mineral content of the thoracic vertebral region ([4]; all patients, after treatment): all patients demonstrated an increase in bone mineral content of the thoracic vertebral region
- Bone mineral content, post treatment ([4]; individual subjects, 2 g/day oral, three months): 427.0 g and 1118.4 g and 986.1 g and 736.2 g and 887.7 g
- Bone mineral content, change ([4]; individual subjects, post vs pre treatment, 2 g/day oral, three months): +3.85% and +1.39% and +5.69% and +0.72% and +7.35%
- IGF-1 vs control at eight and twelve weeks, significance (serum IGF-1 [5]; eight and twelve weeks): just below significance
- correlation between pretreatment IGF-1 and increase in IGF-1 (serum IGF-1 [5]; five treated patients with pretreatment IGF-1 under 200 ng/ml, four weeks): -0.654
- serum IGF-1 after treatment (serum IGF-1 [5]; four, eight and twelve week intervals, 1 unit=240 ng): above 500 U/L
- IGF-1 (serum IGF-1 [5]; 4 weeks): 118 ng/mL and 192 ng/mL and 62 ng/mL and 213 ng/mL and 305 ng/mL and 318 ng/mL and 185 ng/mL and 178 ng/mL and 244 ng/mL and 173 ng/mL
- IGF-1 (serum IGF-1 [5]; 8 weeks): 147 ng/mL and 197 ng/mL and 248 ng/mL and 157 ng/mL and 329 ng/mL and 201 ng/mL and 163 ng/mL and 168 ng/mL
- IGF-1 (serum IGF-1 [5]; 12 weeks): 108 ng/mL and 157 ng/mL and 179 ng/mL and 260 ng/mL and 185 ng/mL and 207 ng/mL
- average serum IGF-1 (serum IGF-1 [5]; eight weeks): 200.8 ng/mL
- average serum IGF-1 (serum IGF-1 [5]; four weeks): 214.0 ng/mL
- average serum IGF-1 (serum IGF-1 [5]; twelve weeks): 193.7 ng/mL
- IGF-1 response (serum IGF-1 [5]; twelve week test period): increased in the carnitine treatment group; also recorded: the lower the baseline level of IGF-1, the greater the increase in IGF-1; also recorded: restored and maintained IGF-1 levels at the normal range
